According to patent US7060792B2, “Protection against ischemia and reperfusion injury” (University of Kentucky Research Foundation, priority 2000, dated 2006):
Square brackets hold non-standard residues; d marks the D form. Peptide text beside a SMILES is read from it.

Test: Solubility in water or saline
Assay type: physicochemical
Text: One of the compounds is a heptapeptide having the sequence Tyr-D-Met-Phe-His-Leu-Met-Asp-NH2 SEQ ID NO:1, hereinafter referred to as deltorphin A. Another of the compounds is a thirteen amino acid sequence Tyr-D-Ala-Phe-Gly-Tyr-Pro-Ser-Gly-Glu-Ala-Lys-Lys-Ile SEQ ID NO:2. The peptides may be produced by a number of methods, such as using an automated peptide synthesizer, through recombinant molecular techniques, or isolated from a naturally occurring source, as is known to one skilled in the art. Deltorphin A SEQ ID NO:1 has a molecular weight of 955.1 daltons, and Dermorphin H SEQ ID NO:2 has a molecular weight of about 1430.64 daltons. […] The initial alkaline pH is adjusted to 7.4 with 1 N HCl.

Compound | solubility
CC[C@H](C)[C@H](NC(=O)[C@H](CCCCN)NC(=O)[C@H](CCCCN)NC(=O)[C@H](C)NC(=O)[C@H](CCC(=O)O)NC(=O)CNC(=O)[C@H](CO)NC(=O)[C@@H]1CCCN1C(=O)[C@H](Cc1ccc(O)cc1)NC(=O)CNC(=O)[C@H](Cc1ccccc1)NC(=O)[C@@H](C)NC(=O)[C@@H](N)Cc1ccc(O)cc1)C(=O)O [Dermorphin H, Tyr-D-Ala-Phe-Gly-Tyr-Pro-Ser-Gly-Glu-Ala-Lys-Lys-Ile] (H-Y[dA]FGYPSGEAKKI-OH; N-terminus and C-terminus assumed) | insoluble in water or saline
CSCC[C@H](NC(=O)[C@H](CC(C)C)NC(=O)[C@H](Cc1cnc[nH]1)NC(=O)[C@H](Cc1ccccc1)NC(=O)[C@@H](CCSC)NC(=O)[C@@H](N)Cc1ccc(O)cc1)C(=O)N[C@@H](CC(=O)O)C(N)=O [Deltorphin A, Tyr-D-Met-Phe-His-Leu-Met-Asp-NH2] (H-Y[dM]FHLMD-NH2) | insoluble in water or saline
